Measurements reported in patent publication US20250049751A1, “L-THEANINE AND TETRAHYDROCANNABINOL FORMULATION” (priority 2018, published 2025).
“Also recorded” adds a separate entry of the source.

Columns and labels:
rats [1] = assay: Paired-pulse (prepulse) inhibition test for cognitive filtering deficits; format: in vivo, rat; conditions: L-Theanine 10 mg/kg; for prepulse inhibition / sensory filtering: both 30 and 100 msec between pre-pulse and test pulse, 10 days twice daily i.p. THC 2.5-10 mg/kg, relative to vehicle control rats, FIG. 1
Protocol: (§1) Four groups of ten rats were studied. The first group of rats was given twice daily intra-peritoneal doses of THC. The dosage regime was as follows
(§2) Immediately preceding each dose of THC, each rat was dosed with 10 mg/kg L-Theanine, administered intra-peritoneally.
(§3) The second group of rats was given the same doses of THC and no L-Theanine.
(§4) The third group of rats was given twice daily doses of L-Theanine but no THC.
(§5) The fourth group of rats was given neither THC nor L-Theanine.
(§6) All groups of rats were fed, watered and otherwise housed identically. At the end of the 10 day period, the rats were subject to a serious of tests.
Rats were acclimatized to the startle chambers (Med Associates) for 5 min over 3 days. On the last day of acclimation, rats were tested in an input/output (I/O) function consisting of 12 increasing startle pulses (from 65 to 120 dB, 5 dB increments) to determine the appropriate gain setting for each individual rat. The testing procedure consisted of the following phases: the acclimation phase, a habituation phase (Block 1), and PPI measurement (Block 2). During acclimation, rats were exposed to the chambers and white background noise (68 dB) for 5 min. During Block 1, 10 pulse alone trials (110 dB white noise, 20 ms duration) were delivered at 15-20 s inter-trial intervals. Block 2 consisted of […] presented 10 times in a pseudo-randomized order at 15-20 s intervals: 10 pulse-alone trials, and 10 of each of the three different prepulse-pulse trial types (72, 76, 80) with interstimulus intervals of 30 and 100 ms. Pulse-alone trials consisted of a startle stimulus-only presentation, whereas prepulse-pulse trials consisted of the presentation of a weaker non-startling prepulse (white noise, 20 ms duration) before the startling stimulus. PPI was calculated for each animal and each trial condition as PPI (%)=(1-average startle amplitude to pulse with prepulse/average startle amplitude to pulse only)×100.

rats [2] = assay: Sucrose preference testing for depression/anhedonia symptoms; format: in vivo, rat; conditions: 2% sucrose vs. plain water, chronic THC 10 days twice daily i.p., L-Theanine 10 mg/kg, FIG. 2
Protocol: as §1, §2, §3, §4, §5, §6
Rats were water-restricted for 12 hrs prior to being given a 2-bottle choice test between a solution containing 2% sucrose vs. plain water. The amounts consumed from each bottle were measured over 24 hr for 4 days. A sucrose preference index was calculated for each rat and averaged across groups by taking the percentage of the volume of sucrose intake over the total volume of fluid intake over […].

rats [3] = assay: Novel object memory test (Novel Object Recognition); format: in vivo, rat; conditions: 60 min delay, chronic THC 10 days twice daily i.p., L-Theanine 10 mg/kg, FIG. 3
Protocol: as §1, §2, §3, §4, §5, §6
The test sessions consisted of two 3-min trials. During the first trial (T1 acquisition trial), each rat was placed in the center of an arena containing two identical objects placed in the far corners 15 cm from the side wall. […] Times spent in exploration were videotaped with a video-tracking system (ANY-maze; Stoelting) and analyzed by an experimenter blind to the treatment conditions. Exploration times were recorded and used to calculate object recognition index [time spent with novel object/total time exploring both objects]

[4] = tested on: single dopamine neurons in the ventral tegmental area; assay: In vivo single-unit electrophysiology recordings in the VTA; parameters: species or system rat; conditions: rats; chronic THC exposure, L-Theanine 10 mg/kg; FIG. 4
Protocol: as §1, §2, §3, §4, §5, §6
(§7) Extracellular single-unit electrophysiological recordings were performed in vivo in adult (>PND 75) pretreated rats during adolescence. The recordings were taken from either putative glutamatergic (GLUT) PFC neurons or dopaminergic (DA) VTA neurons. Rats were anesthetized with urethane (1.4 g/kg, i.p., Sigma-Aldrich) and placed in a stereotaxic frame with body temperature maintained at 37° C. […] Extracellular signals were amplified (×5000) using a MultiClamp 700B amplifier (Molecular Devices), digitized at 25 kHz and recorded on the computer using a Digidata 1440 A and pClamp software (Molecular Devices). […]

[5] = tested on: single neurons of the prefrontal cortex (PFC); assay: In vivo single-unit electrophysiology recordings in the PFC (burst testing); parameters: species or system rat; conditions: rats; chronic THC exposure, L-Theanine 10 mg/kg; FIG. 5
Protocol: as §1, §2, §3, §4, §5, §6
as §7, with “neurons.” for “neurons. Rats were anesthetized with urethane (1.4 g/kg, i.p., Sigma-Aldrich) and placed in a stereotaxic frame with body temperature maintained at 37° C.”
Putative mPFC pyramidal cells were identified based on established criteria85: (1) firing frequency <10 Hz, (2) waveform shape, and (3) action potential duration >2.5 ms. […] After an individual putative pyramidal neuron was isolated, its spontaneous activity was recorded for 5 min. […]

[6] = tested on: gamma-band activity in the rat prefrontal cortex; assay: Local field potential recordings in prefrontal cortex (normalized power testing); format: in vivo; conditions: chronic THC exposure, L-Theanine 10 mg/kg, 0-100 Hz range
Protocol: as §1, §2, §3, §4, §5, §6, §7

[7] = tested on: glycogen-synthase-kinase-3A; assay: Western Blot of GSK-3α protein expression; format: in vivo, rat; conditions: rats, chronic THC exposure, L-Theanine 10 mg/kg
Protocol: (§8) FIG. 7. […] These molecular signaling effects are prevented by co-administration with L-Theanine (10 mg/kg), as measured in a Western Blot procedure.
as §1, §2, §3, §4, §5, §6

[8] = tested on: glycogen-synthase-kinase-3B; assay: Western Blot of GSK-3β protein expression; format: in vivo, rat; conditions: rats, chronic THC exposure, L-Theanine 10 mg/kg
Protocol: as §8, §1, §2, §3, §4, §5, §6

[9] = tested on: Akt (protein kinase B) threanine308; assay: Protein expression of Akt308 in prefrontal cortex; format: in vivo; conditions: prefrontal cortex of rat brain; chronic THC, L-Theanine 10 mg/kg; FIG. 8
Protocol: FIG. 8. […] This effect is prevented by L-Theanine (10 mg/kg) co-administration.
as §1, §2, §3, §4, §5, §6

Akt at serine 473 = assay: Protein expression of Akt at serine 473 in prefrontal cortex; format: in vivo; conditions: prefrontal cortex of rat brain; chronic THC, L-Theanine 10 mg/kg; FIG. 8

With `CCNC(=O)CC[C@H](N)C(=O)O` [L-Theanine] the “prepulse inhibition / sensory filtering” value (rats [1]) was “no apparent effects on sensory filtering”, the “sucrose preference (anhedonic, depression-like effects)” value (rats [2]) was “no apparent effects on sucrose preference” and the “object recognition (object memory)” value (rats [3]) was “no apparent effects on object recognition”.

With `CCCCCc1cc(O)c2c(c1)OC(C)(C)[C@@H]1CCC(C)=C[C@@H]21` [THC, Δ-9-tetrahydrocannabinol] the “sensorimotor filtering (paired-pulse-inhibition)” value (rats [1]; 30 msec stimulus intervals, 72 and 84 decibel stimulus intensities, FIG. 1A) was “disruption of sensorimotor filtering”, the “sensorimotor filtering (paired-pulse-inhibition)” value (rats [1]; 100 msec stimulus intervals, 72, 76 and 80 decibel stimulus intensities, FIG. 1B) was “disruption of sensorimotor filtering” and the “prepulse inhibition / sensory filtering” value (rats [1]) was “strong deficits in the prepulse inhibition”. The “sucrose preference (anhedonic, depression-like effects)” value (rats [2]) was “anhedonic (depression-like) effects; also recorded: strong sucrose preference reduction”, the “object recognition (object memory)” value (rats [3]) was “significant object memory impairment; also recorded: strong reductions in object recognition” and the “activity rates of single dopamine neurons in the ventral tegmental area” value [4] was “hyperactive activity rates”. For the same compound, the “bursting pattern activity of single neurons of the prefrontal cortex” value [5] was “hyperactive ‘bursting’ pattern activity state; also recorded: neuronal hyperactivity”, the “gamma-band activity (local field potentials, normalized power)” value ([6]; FIG. 6) was “significant decrease in gamma-band activity states” and the “gamma-band activity (local field potentials, normalized power)” value ([6]; FIG. 6, listed as THC only) was “generally decreased activity”. The “protein expression levels of GSK-3α” value ([7]; FIG. 7) was “significant loss in the protein expression levels”, the “protein expression levels of GSK-3α” value ([7]; FIG. 7, listed as THC-alone) was “significant decrease” and the “protein expression levels of GSK-3β” value ([8]; FIG. 7) was “significant loss in the protein expression levels”. The “protein expression levels of GSK-3β” value ([8]; FIG. 7, listed as THC-alone) was “significant decrease”, the “protein expression levels of Akt308” value [9] was “significant downregulation in protein expression levels of Akt308” and the “effect on Akt at serine 473” value (Akt at serine 473) was “no effect”.
